# How the values were obtained:
# LNCaP C4-2B = assay: Anticancer activity against PMSA positive human LNCaP C4-2B cells assessed as reduction in cell viability measured after 72 hrs by celltiter-glo assay; assay type: functional, cell-based; conditions: dose 0.313-20 µM
# [1] = Drug uptake in PSMA positive human LNCaP C4-2B cells assessed as increase in fluorescence at 10 uM incubated for 10 mins by DAPI staining based confocal microscopy analysis; assay type: ADME, cell-based
# [2] = Drug uptake in human PC-3 cells with PSMA knockout assessed as increase in fluorescence at 10 uM incubated for 10 mins by DAPI staining based confocal microscopy analysis; assay type: ADME, cell-based; conditions: pc-3, 10 min
# [3] = Drug uptake in PSMA positive human LNCaP C4-2B cells assessed as increase in fluorescence at 10 uM incubated for 10 mins in presence of CTT1057 by DAPI staining based confocal microscopy analysis; assay type: ADME, cell-based
# PC-3 = assay: Anticancer activity against human PC-3 cells with PSMA knockout cells assessed as reduction in cell viability measured after 72 hrs by celltiter-glo assay; assay type: functional, cell-based; conditions: dose 0.313-20 µM
# [4] = target: Glutamate carboxypeptidase 2 (Homo sapiens, UniProt Q04609); assay: Irreversible inhibition of PSMA (unknown origin)
# Glutamate carboxypeptidase 2, sequence (Q04609 whole entry): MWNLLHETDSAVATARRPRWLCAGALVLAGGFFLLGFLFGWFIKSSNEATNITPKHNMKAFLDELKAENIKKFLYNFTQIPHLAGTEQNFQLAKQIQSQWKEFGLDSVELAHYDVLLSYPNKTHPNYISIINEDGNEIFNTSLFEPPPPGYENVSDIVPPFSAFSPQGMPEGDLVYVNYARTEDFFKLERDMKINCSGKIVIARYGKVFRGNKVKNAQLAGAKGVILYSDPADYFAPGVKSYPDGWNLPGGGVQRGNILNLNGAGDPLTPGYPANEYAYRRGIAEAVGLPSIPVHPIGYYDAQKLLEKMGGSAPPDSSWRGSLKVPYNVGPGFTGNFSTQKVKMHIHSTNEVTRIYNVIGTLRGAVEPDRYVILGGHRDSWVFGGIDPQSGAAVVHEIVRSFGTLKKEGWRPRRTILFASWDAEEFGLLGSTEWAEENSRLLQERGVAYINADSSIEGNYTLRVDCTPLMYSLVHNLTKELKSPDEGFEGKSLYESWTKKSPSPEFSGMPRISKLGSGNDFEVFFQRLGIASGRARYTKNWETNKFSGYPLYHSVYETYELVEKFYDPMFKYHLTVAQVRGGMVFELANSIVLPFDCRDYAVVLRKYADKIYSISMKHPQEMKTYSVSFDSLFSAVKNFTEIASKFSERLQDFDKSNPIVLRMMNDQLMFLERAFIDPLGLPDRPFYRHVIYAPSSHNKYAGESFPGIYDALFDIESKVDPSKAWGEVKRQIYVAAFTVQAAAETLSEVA
SMILES,Activity (LNCaP C4-2B),Drug uptake [1],Drug uptake [2],Drug uptake [3],Activity (PC-3),IC50 [4] [µM]
COc1cccc2c1C(=O)c1c(O)c3c(c(O)c1C2=O)C[C@@](O)(C(=O)CO)C[C@@H]3O[C@H]1C[C@H](NC(=O)OCc2ccc(NC(=O)[C@H](CCCNC(N)=O)NC(=O)[C@@H](NC(=O)c3ccc(Cn4nnc5c4-c4ccccc4CN(C(=O)CCCCC(=O)NCCCCCC(=O)N[C@@H](CCC(=O)N[C@@H](CCCOP(=O)(O)N[C@@H](CCC(=O)O)C(=O)O)C(=O)O)C(=O)O)c4ccccc4-5)cc3)C(C)C)cc2)[C@H](O)[C@H](C)O1,Dose-Dependent Effect,Active,Not Active,Not Active,Dose-Dependent Effect,–
COc1cccc2c1C(=O)c1c(O)c3c(c(O)c1C2=O)C[C@@](O)(C(=O)CO)C[C@@H]3O[C@H]1C[C@H](N)[C@H](O)[C@H](C)O1 [DOXORUBICIN],–,–,–,–,–,10

# — ChEMBL document CHEMBL5625272, “A PSMA-targeted doxorubicin small-molecule drug conjugate” (Bioorg Med Chem Lett, 2024)
